For seven compounds, GI50 and TGI results are on record in PubChem BioAssay (NCI).

Each structure is given as a SMILES string. Several values for one entry are separate records, joined by “and”; a condition that tells them apart may be missing. Equal entries are not always repeated.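 In this assay, cells in 96-well plates receive the compound at five concentrations for 48 hours. Endpoints are linearly interpolated between the surrounding concentrations. GI50 = concentration required for 50% inhibition of growth. TGI is the concentration that stops growth completely.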

Test systems include UO-31 renal; RPMI-8226 leukemia; ACHN renal; RXF 393 renal; A498 renal; MDA-MB-435; MOLT-4 leukemia; SF-295 CNS; CAKI-1 renal; HCT-116 colon.
Holding throughout (test): inhibition of tumour cell growth, NCI panel, 48 h

On to `O=C1C(CN(Cc2ccccc2)Cc2ccccc2)CCCC1CN(Cc1ccccc1)Cc1ccccc1` (stereo not drawn), for which the GI50 is 16.9 µM and 47.6 µM with UO-31 renal; 15.9 µM and > 85.3 µM in the assay on ACHN renal; 20.1 µM and > 100 µM in the assay with RXF 393 renal; 14.6 µM and 70.3 µM with HCT-116 colon. In addition, the TGI with UO-31 renal is 27.3 µM and > 100 µM; in the assay on RPMI-8226 leukemia it was over 100 µM; in the assay on ACHN renal, 25.7 µM and > 100 µM; with RXF 393 renal it was over 100 µM; in the assay with A498 renal it was 77.2 µM and > 100 µM; in the assay with MDA-MB-435 it was over 100 µM. Further, the TGI in the assay with MOLT-4 leukemia was over 100 µM; in the assay on SF-295 CNS it was over 100 µM; with CAKI-1 renal it was 11.5 µM and > 100 µM; in the assay on HCT-116 colon, 21.5 µM and > 100 µM.

On to `O=C1OCC2=C1C(c1ccccc1)c1cc3c(cc1N2CCO)CCC3` (stereo not drawn), for which the GI50 is 0.117 µM with UO-31 renal; 0.106 µM with RPMI-8226 leukemia; 0.148 µM with ACHN renal; 0.0597 µM in the assay on RXF 393 renal; 0.0746 µM in the assay on A498 renal; 0.0429 µM with MDA-MB-435. Also, the GI50 was 0.307 µM with MOLT-4 leukemia, 0.0677 µM in the assay on SF-295 CNS, 0.0868 µM in the assay with CAKI-1 renal and 0.0857 µM with HCT-116 colon. Moreover, the TGI is over 20.1 µM in the assay with UO-31 renal; over 25 µM with RPMI-8226 leukemia; over 25 µM with ACHN renal; 0.138 µM in the assay on RXF 393 renal; 0.657 µM in the assay with A498 renal; 0.129 µM with MDA-MB-435. For the same compound, the TGI in the assay with MOLT-4 leukemia is over 25 µM; in the assay on CAKI-1 renal, over 25 µM; in the assay on HCT-116 colon it was 5.42 µM.

Turning to `O=C(O[C@H]1CN[C@H](C#Cc2cc3ncnc(Nc4ccc(Cc5ccccc5)cc4)c3s2)C1)N1CCOCC1`, the GI50 in the assay on UO-31 renal is 3.36 µM; in the assay on RPMI-8226 leukemia, 6.47 µM; with ACHN renal, 3.53 µM; in the assay with RXF 393 renal, 1.35 µM; in the assay with A498 renal it was 0.768 µM; in the assay on MDA-MB-435, 6.33 µM. For the same compound, the GI50 was 6.93 µM in the assay on MOLT-4 leukemia, over 13.6 µM in the assay on SF-295 CNS, 2.08 µM in the assay with CAKI-1 renal and 4.03 µM with HCT-116 colon. The TGI was over 25 µM in the assay with UO-31 renal; 24.9 µM in the assay on RPMI-8226 leukemia; over 25 µM in the assay on ACHN renal; 7.11 µM with RXF 393 renal; 6.53 µM in the assay with A498 renal; over 22.5 µM in the assay with MDA-MB-435. The TGI in the assay with MOLT-4 leukemia was over 25 µM; with SF-295 CNS it was over 25 µM; with CAKI-1 renal it was over 24.1 µM; with HCT-116 colon, 8.16 µM.

With `NC(=O)c1cccc(N)c1`, the GI50 in the assay with UO-31 renal, in the assay with RPMI-8226 leukemia, in the assay on ACHN renal, with RXF 393 renal, with A498 renal and with MDA-MB-435 was over 100 µM each time. Moreover, the GI50 with MOLT-4 leukemia, with SF-295 CNS, with CAKI-1 renal and in the assay with HCT-116 colon was over 100 µM throughout. Moreover, the TGI in the assay on UO-31 renal, in the assay on RPMI-8226 leukemia, in the assay on ACHN renal, in the assay on RXF 393 renal, in the assay with A498 renal and in the assay with MDA-MB-435 was over 100 µM in each case. Besides, the TGI in the assay on MOLT-4 leukemia, in the assay with SF-295 CNS, in the assay on CAKI-1 renal and with HCT-116 colon was over 100 µM in each case.

For `COC(=O)c1c2c(c[n+]([O-])c1C)C(=O)C(NCc1ccccc1)=CC2=O`, the GI50 with UO-31 renal was 1.25 µM; in the assay with RPMI-8226 leukemia, 0.996 µM; in the assay with ACHN renal it was 1.02 µM; in the assay with RXF 393 renal, 1.05 µM; in the assay on A498 renal it was 1.32 µM; in the assay with MDA-MB-435 it was 0.193 µM. Also, the GI50 is 0.412 µM with MOLT-4 leukemia, 0.885 µM with SF-295 CNS, 1.27 µM in the assay with CAKI-1 renal and 0.269 µM in the assay on HCT-116 colon. The TGI in the assay on UO-31 renal came to 2.58 µM; in the assay on RPMI-8226 leukemia it was 3.79 µM; in the assay with ACHN renal, 2.2 µM; with RXF 393 renal, 2.48 µM; in the assay on A498 renal it was 2.65 µM; in the assay with MDA-MB-435, 0.376 µM. Moreover, the TGI with MOLT-4 leukemia worked out at 2.59 µM; in the assay with SF-295 CNS, 2.15 µM; with CAKI-1 renal, 3.18 µM; with HCT-116 colon, 0.924 µM.

For the compound `COc1cc2c3c(n(CCCN=[N+]=[N-])c(=O)c2cc1OC)-c1ccc(N)cc1C3=O`, the GI50 is 0.146 µM in the assay with UO-31 renal; 0.0306 µM in the assay with RPMI-8226 leukemia; 0.102 µM in the assay on ACHN renal; 0.189 µM in the assay with RXF 393 renal; 0.0759 µM with A498 renal; 0.479 µM with MDA-MB-435. Also, the GI50 was 0.0731 µM with MOLT-4 leukemia, 0.0835 µM in the assay on SF-295 CNS, 0.132 µM with CAKI-1 renal and 0.097 µM in the assay on HCT-116 colon. The TGI in the assay with UO-31 renal stood at 0.803 µM; in the assay with RPMI-8226 leukemia, 0.446 µM; in the assay with ACHN renal, 1.02 µM; in the assay on RXF 393 renal it was 0.468 µM; in the assay on A498 renal, 0.484 µM; in the assay with MDA-MB-435 it was 1.65 µM. The TGI in the assay on MOLT-4 leukemia came to 1.46 µM; in the assay with SF-295 CNS, 1.51 µM; in the assay on CAKI-1 renal it was 2.8 µM; in the assay on HCT-116 colon it was 0.521 µM.

`O=C(/C=C/c1ccccc1O)c1ccccc1`: the GI50 in the assay with UO-31 renal was 1.68 µM; in the assay on RPMI-8226 leukemia, 2.44 µM; with ACHN renal it was 11 µM; in the assay with RXF 393 renal it was 10.3 µM; in the assay on A498 renal it was 15.2 µM; in the assay on MDA-MB-435, 6.02 µM. Moreover, the GI50 with MOLT-4 leukemia is 2.78 µM; in the assay on SF-295 CNS it was 10.9 µM; in the assay on CAKI-1 renal it was 4.26 µM; in the assay on HCT-116 colon, 1.58 µM. Besides, the TGI in the assay on UO-31 renal was found to be 15.7 µM; in the assay on RPMI-8226 leukemia, 6.68 µM; in the assay on ACHN renal it was 24.2 µM; in the assay with RXF 393 renal, 23.4 µM; in the assay on A498 renal, 28.6 µM; with MDA-MB-435, 21.1 µM. Moreover, the TGI was found to be 14.3 µM in the assay with MOLT-4 leukemia, 26.4 µM in the assay with SF-295 CNS, 20.8 µM in the assay on CAKI-1 renal and 2.99 µM in the assay with HCT-116 colon.
